Assay results reported in EP4786487A1, “PEPTIDE” (Peptidream Inc, priority 2023, dated 2025).
Positions of bridges follow the written chain, without caps; N, C: chain ends. Non-standard residues stand in square brackets, D forms with d. Residues, ends and D or L forms follow the SMILES beside them. Phe(4-COOH) = N[C@@H](Cc1ccc(C(=O)O)cc1)C(=O)O; Trp(7-aza) = N[C@@H](Cc1c[nH]c2ncccc12)C(=O)O; Gly(N(CH2)3COOH) = O=C(O)CCCNCC(=O)O; NMeF = CN[C@@H](Cc1ccccc1)C(=O)O; 4Pal = N[C@@H](Cc1ccncc1)C(=O)O; NMeA = CN[C@@H](C)C(=O)O; Sar = CNCC(=O)O

What was measured:
[1] = target: T1, GDF-11 (Homo sapiens, UniProt O95390); test: HepG2 reporter gene assay, Evaluation Procedure (2): 2-concentrations assay, GDF-11 inhibition; assay type: cell-based; conditions: GDF-11 10 ng/mL; for inhibition at 0.03 µM: HepG2, peptide 30nM, read-out: GDF11 Inhibition 30nM; for inhibition at 0.1 µM: HepG2, peptide 100nM, read-out: GDF11 Inhibition 100nM
T1 construct: purchased R&D systems 1958-GD-G8/CF
T1 sequence (O95390 299-407): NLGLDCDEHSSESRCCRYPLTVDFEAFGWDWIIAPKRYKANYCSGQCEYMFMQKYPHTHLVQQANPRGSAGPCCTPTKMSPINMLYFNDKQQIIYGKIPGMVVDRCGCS
Outline: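 HepG2 cells carrying the transfected pGL3(CAGA)12-luc reporter, a pGL3 vector with luciferase placed downstream of 12 CAGA repeats, were stimulated with GDF-11 at a final 10 ng/mL together with test peptide. Blank wells received no GDF-11 and no peptide. Plates were incubated 20 to 24 hours at 37°C with 5% CO2. Luminescence from One-Glo substrate was read to calculate percent inhibition.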

[2] = target: T2, Myostatin (Homo sapiens, UniProt O14793); test: HepG2 reporter gene assay, Evaluation Procedure (2): 2-concentrations assay, myostatin inhibition; assay type: cell-based; conditions: Myostatin 10 ng/mL, HepG2; for inhibition at 0.03 µM: peptide 30nM, read-out: Myostatin Inhibition 30nM; for inhibition at 0.1 µM: peptide 100nM, read-out: Myostatin Inhibition 100nM
T2 construct: active myostatin (also called mature myostatin) is a homodimer consisting of two C-terminal growth factor domains; purchased R&D systems 788-G8/CF
T2 sequence (O14793 267-375): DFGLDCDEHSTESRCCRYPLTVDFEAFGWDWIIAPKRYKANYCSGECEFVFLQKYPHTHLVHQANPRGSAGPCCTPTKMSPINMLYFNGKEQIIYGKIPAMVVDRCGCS
Outline: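 Myostatin inhibition was measured in a luciferase reporter assay using HepG2 cells transfected with a pGL3 vector containing 12 CAGA repeats upstream of luciferase. After 20 to 24 hours with 10 ng/mL myostatin, cells received One-Glo:PBS (1:1) at 100 µL/well, were shaken for 5 min, and 20 µL/well was moved to 384-well plates and read on an Envision 2104.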

SMILES | inhibition at 0.03 µM [1] | inhibition at 0.1 µM [1] | inhibition at 0.03 µM [2] | inhibition at 0.1 µM [2]
CC[C@H](C)[C@@H]1NC(=O)[C@H](Cc2ccccc2)N(C)C(=O)[C@H](Cc2ccc(O)cc2)NC(=O)[C@H](Cc2c[nH]c3ccccc23)NC(=O)[C@H](C)NC(=O)CN(CCCC(=O)O)C(=O)CSC[C@H](C(=O)NCC(=O)N[C@H](CCC(=O)O)C(=O)NCC(=O)N[C@H](CCCCN)C(=O)O)NC(=O)[C@H](Cc2ccccc2)N(C)C(=O)[C@H](C)N(C)C(=O)[C@H](CC(C)C)NC(=O)[C@H](Cc2ccccc2)N(C)C(=O)[C@H](CCCNC(=N)N)NC(=O)[C@H](Cc2ccc(C(=O)O)cc2)NC(=O)[C@H](Cc2ccc(O)cc2)NC(=O)CN(C)C1=O [Myostatin_99_v27] ({CH2CO}-[Gly(N(CH2)3COOH)]AWY[NMeF]I[Sar]Y[Phe(4-COOH)]R[NMeF]L[NMeA][NMeF][dC]G[dE]G[dK]-OH; thioether N-15) | 0% | 0% | 24% | 54%
CC[C@H](C)[C@@H]1NC(=O)[C@H](Cc2ccccc2)N(C)C(=O)[C@H](Cc2ccc(O)cc2)NC(=O)[C@H](Cc2c[nH]c3ncccc23)NC(=O)[C@H](C)NC(=O)[C@H](C)NC(=O)CSC[C@H](C(=O)NCC(=O)N[C@H](CCC(=O)O)C(=O)NCC(=O)N[C@H](CCCCN)C(=O)O)NC(=O)[C@H](Cc2ccccc2)N(C)C(=O)[C@H](C)N(C)C(=O)[C@H](CC(C)C)NC(=O)[C@H](Cc2ccccc2)N(C)C(=O)[C@H](CCCNC(=N)N)NC(=O)[C@H](Cc2ccc(C(=O)O)cc2)NC(=O)[C@H](Cc2ccccc2)NC(=O)CN(C)C1=O [Myostatin_99_v28] ({CH2CO}-AA[Trp(7-aza)]Y[NMeF]I[Sar]F[Phe(4-COOH)]R[NMeF]L[NMeA][NMeF][dC]G[dE]G[dK]-OH; thioether N-15) | 0% | 20% | 69% | 92%
CC[C@H](C)[C@@H]1NC(=O)[C@H](Cc2ccccc2)N(C)C(=O)[C@H](Cc2ccc(O)cc2)NC(=O)[C@H](Cc2c[nH]c3ncccc23)NC(=O)[C@H](C)NC(=O)[C@H](C)NC(=O)CSC[C@H](C(=O)NCC(=O)N[C@H](CCC(=O)O)C(=O)NCC(=O)N[C@H](CCCCN)C(=O)O)NC(=O)[C@H](Cc2ccccc2)N(C)C(=O)[C@H](C)N(C)C(=O)[C@H](CC(C)C)NC(=O)[C@H](Cc2ccccc2)N(C)C(=O)[C@H](CCCNC(=N)N)NC(=O)[C@H](Cc2ccc(C(=O)O)cc2)NC(=O)[C@H](Cc2ccncc2)NC(=O)CN(C)C1=O [Myostatin_99_v29] ({CH2CO}-AA[Trp(7-aza)]Y[NMeF]I[Sar][4Pal][Phe(4-COOH)]R[NMeF]L[NMeA][NMeF][dC]G[dE]G[dK]-OH; thioether N-15) | 0% | 0% | 57% | 81%
CC[C@H](C)[C@@H]1NC(=O)[C@H](Cc2ccccc2)N(C)C(=O)[C@H](Cc2ccc(O)cc2)NC(=O)[C@H](Cc2c[nH]c3ncccc23)NC(=O)[C@H](C)NC(=O)CN(CCCC(=O)O)C(=O)CSC[C@H](C(=O)NCC(=O)N[C@H](CCC(=O)O)C(=O)NCC(=O)N[C@H](CCCCN)C(=O)O)NC(=O)[C@H](Cc2ccccc2)N(C)C(=O)[C@H](C)N(C)C(=O)[C@H](CC(C)C)NC(=O)[C@H](Cc2ccccc2)N(C)C(=O)[C@H](CCCNC(=N)N)NC(=O)[C@H](Cc2ccc(C(=O)O)cc2)NC(=O)[C@H](Cc2ccccc2)NC(=O)CN(C)C1=O [Myostatin_99_v30] ({CH2CO}-[Gly(N(CH2)3COOH)]A[Trp(7-aza)]Y[NMeF]I[Sar]F[Phe(4-COOH)]R[NMeF]L[NMeA][NMeF][dC]G[dE]G[dK]-OH; thioether N-15) | 0% | 0% | 31% | 60%
CC[C@H](C)[C@@H]1NC(=O)[C@H](Cc2ccccc2)N(C)C(=O)[C@H](Cc2ccc(O)cc2)NC(=O)[C@H](Cc2c[nH]c3ccccc23)NC(=O)[C@H](C)NC(=O)CN(CCCC(=O)O)C(=O)CSC[C@H](C(=O)N[C@H](CO)C(=O)N[C@H](CO)C(=O)N[C@H](CO)C(=O)N[C@H](CCCCN)C(=O)O)NC(=O)[C@H](Cc2ccccc2)N(C)C(=O)[C@H](C)N(C)C(=O)[C@H](CC(C)C)NC(=O)[C@H](Cc2ccccc2)N(C)C(=O)[C@H](CCCNC(=N)N)NC(=O)[C@H](Cc2ccc(C(=O)O)cc2)NC(=O)[C@H](Cc2ccc(O)cc2)NC(=O)CN(C)C1=O [Myostatin_99_v34] ({CH2CO}-[Gly(N(CH2)3COOH)]AWY[NMeF]I[Sar]Y[Phe(4-COOH)]R[NMeF]L[NMeA][NMeF][dC][dS][dS][dS][dK]-OH; thioether N-15) | 0% | 32% | 65% | 89%
CC[C@H](C)[C@@H]1NC(=O)[C@H](Cc2ccccc2)N(C)C(=O)[C@H](Cc2ccc(O)cc2)NC(=O)[C@H](Cc2c[nH]c3ncccc23)NC(=O)[C@H](C)NC(=O)[C@H](C)NC(=O)CSC[C@H](C(=O)N[C@H](CO)C(=O)N[C@H](CO)C(=O)N[C@H](CO)C(=O)N[C@H](CCCCN)C(=O)O)NC(=O)[C@H](Cc2ccccc2)N(C)C(=O)[C@H](C)N(C)C(=O)[C@H](CC(C)C)NC(=O)[C@H](Cc2ccccc2)N(C)C(=O)[C@H](CCCNC(=N)N)NC(=O)[C@H](Cc2ccc(C(=O)O)cc2)NC(=O)[C@H](Cc2ccccc2)NC(=O)CN(C)C1=O [Myostatin_99_v35] ({CH2CO}-AA[Trp(7-aza)]Y[NMeF]I[Sar]F[Phe(4-COOH)]R[NMeF]L[NMeA][NMeF][dC][dS][dS][dS][dK]-OH; thioether N-15) | 13% | 36% | 95% | 100%
CC[C@H](C)[C@@H]1NC(=O)[C@H](Cc2ccccc2)N(C)C(=O)[C@H](Cc2ccc(O)cc2)NC(=O)[C@H](Cc2c[nH]c3ncccc23)NC(=O)[C@H](C)NC(=O)[C@H](C)NC(=O)CSC[C@H](C(=O)N[C@H](CO)C(=O)N[C@H](CO)C(=O)N[C@H](CO)C(=O)N[C@H](CCCCN)C(=O)O)NC(=O)[C@H](Cc2ccccc2)N(C)C(=O)[C@H](C)N(C)C(=O)[C@H](CC(C)C)NC(=O)[C@H](Cc2ccccc2)N(C)C(=O)[C@H](CCCNC(=N)N)NC(=O)[C@H](Cc2ccc(C(=O)O)cc2)NC(=O)[C@H](Cc2ccncc2)NC(=O)CN(C)C1=O [Myostatin_99_v36] ({CH2CO}-AA[Trp(7-aza)]Y[NMeF]I[Sar][4Pal][Phe(4-COOH)]R[NMeF]L[NMeA][NMeF][dC][dS][dS][dS][dK]-OH; thioether N-15) | 2% | 18% | 92% | 98%
CC[C@H](C)[C@@H]1NC(=O)[C@H](Cc2ccccc2)N(C)C(=O)[C@H](Cc2ccc(O)cc2)NC(=O)[C@H](Cc2c[nH]c3ncccc23)NC(=O)[C@H](C)NC(=O)CN(CCCC(=O)O)C(=O)CSC[C@H](C(=O)N[C@H](CO)C(=O)N[C@H](CO)C(=O)N[C@H](CO)C(=O)N[C@H](CCCCN)C(=O)O)NC(=O)[C@H](Cc2ccccc2)N(C)C(=O)[C@H](C)N(C)C(=O)[C@H](CC(C)C)NC(=O)[C@H](Cc2ccccc2)N(C)C(=O)[C@H](CCCNC(=N)N)NC(=O)[C@H](Cc2ccc(C(=O)O)cc2)NC(=O)[C@H](Cc2ccccc2)NC(=O)CN(C)C1=O [Myostatin_99_v37] ({CH2CO}-[Gly(N(CH2)3COOH)]A[Trp(7-aza)]Y[NMeF]I[Sar]F[Phe(4-COOH)]R[NMeF]L[NMeA][NMeF][dC][dS][dS][dS][dK]-OH; thioether N-15) | 0% | 0% | 69% | 88%
CC[C@H](C)[C@@H]1NC(=O)[C@H](Cc2ccccc2)N(C)C(=O)[C@H](Cc2ccc(O)cc2)NC(=O)[C@H](Cc2c[nH]c3ncccc23)NC(=O)[C@H](C)NC(=O)CN(CCCC(=O)O)C(=O)CSC[C@H](C(=O)N[C@H](CO)C(=O)N[C@H](CO)C(=O)N[C@H](CO)C(=O)N[C@H](CCCCN)C(=O)O)NC(=O)[C@H](Cc2ccccc2)N(C)C(=O)[C@H](C)N(C)C(=O)[C@H](CC(C)C)NC(=O)[C@H](Cc2ccccc2)N(C)C(=O)[C@H](CCCNC(=N)N)NC(=O)[C@H](Cc2ccc(C(=O)O)cc2)NC(=O)[C@H](Cc2ccncc2)NC(=O)CN(C)C1=O [Myostatin_99_v38] ({CH2CO}-[Gly(N(CH2)3COOH)]A[Trp(7-aza)]Y[NMeF]I[Sar][4Pal][Phe(4-COOH)]R[NMeF]L[NMeA][NMeF][dC][dS][dS][dS][dK]-OH; thioether N-15) | 0% | 11% | 40% | 80%
